Assay results: ChEMBL document CHEMBL1137016, “1-alkyl-8-(piperazine-1-sulfonyl)phenylxanthines: development and characterization of adenosine A2B receptor antagonists and a new radioligand with subnanomolar affinity and subtype specificity” (J Med Chem, 2009)

What was measured:
[1] = target: T1, Adenosine receptor A2b (Homo sapiens, UniProt P29275); assay: Antagonist activity at adenosine A2B receptor in human Jurkat T cells assessed as inhibition of NECA-induced increase in intracellular calcium concentration by fluorimetric measurement in presence of MSX-2; type: functional, cell-based
T1 sequence (P29275 whole entry): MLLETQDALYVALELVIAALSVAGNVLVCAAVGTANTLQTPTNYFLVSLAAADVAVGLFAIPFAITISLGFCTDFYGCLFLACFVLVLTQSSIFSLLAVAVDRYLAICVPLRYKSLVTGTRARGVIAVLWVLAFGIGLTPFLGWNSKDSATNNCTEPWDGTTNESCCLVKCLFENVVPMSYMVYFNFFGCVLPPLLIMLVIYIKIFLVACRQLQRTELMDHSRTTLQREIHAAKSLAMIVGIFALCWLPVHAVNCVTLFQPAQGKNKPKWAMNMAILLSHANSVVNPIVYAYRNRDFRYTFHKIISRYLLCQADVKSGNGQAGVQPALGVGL

[2] = target: T2, Adenosine receptor A3 (Homo sapiens) (UniProt P0DMS8); assay: Displacement of [3H]PSB-11 from human recombinant adenosine A3 receptor expressed in CHO cells at 10 uM; type: cell-based
T2 sequence (whole entry): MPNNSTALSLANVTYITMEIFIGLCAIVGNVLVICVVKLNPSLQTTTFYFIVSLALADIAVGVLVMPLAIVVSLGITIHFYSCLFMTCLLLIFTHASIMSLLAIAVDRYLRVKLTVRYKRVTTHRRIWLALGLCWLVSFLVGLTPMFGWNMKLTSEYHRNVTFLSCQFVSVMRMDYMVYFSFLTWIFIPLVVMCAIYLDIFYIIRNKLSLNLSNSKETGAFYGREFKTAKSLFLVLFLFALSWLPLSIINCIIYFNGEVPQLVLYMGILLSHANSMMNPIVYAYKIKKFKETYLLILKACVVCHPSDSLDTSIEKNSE

[3] = target: T3, Adenosine receptor A3 (Homo sapiens, UniProt P0DMS8); assay: Displacement of [3H]PSB-11 from human recombinant adenosine A3 receptor expressed in CHO cells; type: cell-based
T3 sequence (P0DMS8 whole entry): T2 sequence (whole entry)

[4] = target: T4, Adenosine receptor A1 (Homo sapiens, UniProt P30542); assay: Displacement of [3H]CCPA from human adenosine A1 receptor expressed in CHO cells; type: cell-based
T4 sequence (P30542 whole entry): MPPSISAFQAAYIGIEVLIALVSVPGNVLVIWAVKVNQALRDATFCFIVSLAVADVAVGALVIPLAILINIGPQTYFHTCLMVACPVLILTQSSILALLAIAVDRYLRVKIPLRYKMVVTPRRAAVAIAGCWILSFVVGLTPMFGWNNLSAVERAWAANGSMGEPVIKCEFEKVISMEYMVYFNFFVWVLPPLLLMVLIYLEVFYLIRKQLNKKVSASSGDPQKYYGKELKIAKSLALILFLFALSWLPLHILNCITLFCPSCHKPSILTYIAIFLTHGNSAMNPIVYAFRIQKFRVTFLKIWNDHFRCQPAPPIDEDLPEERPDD

[5] = target: T1, Adenosine receptor A2b; assay: Displacement of [3H]PSB-603 from human recombinant adenosine A2B receptor expressed in CHO cells; type: cell-based
[6] = target: Adenosine receptor A2a (Homo sapiens, UniProt P29274); assay: Displacement of [3H]MSX-2 from human recombinant adenosine A2A receptor expressed in CHO cells; type: cell-based
[7] = target: T5, Adenosine receptor A1 (Homo sapiens) (UniProt P30542); assay: Displacement of [3H]CCPA from human recombinant adenosine A1 receptor expressed in CHO cells at 10 uM; type: cell-based
T5 sequence (whole entry): T4 sequence (P30542 whole entry)

[8] = target: T2, Adenosine receptor A3 (Homo sapiens); assay: Displacement of [3H]PSB-11 from human recombinant adenosine A3 receptor expressed in CHO cells at 1 uM; type: cell-based
[9] = target: T6, Adenosine receptor A1 (Rattus norvegicus, UniProt P25099); assay: Displacement of [3H]CCPA from rat brain cortex adenosine A1 receptor
T6 sequence (P25099 whole entry): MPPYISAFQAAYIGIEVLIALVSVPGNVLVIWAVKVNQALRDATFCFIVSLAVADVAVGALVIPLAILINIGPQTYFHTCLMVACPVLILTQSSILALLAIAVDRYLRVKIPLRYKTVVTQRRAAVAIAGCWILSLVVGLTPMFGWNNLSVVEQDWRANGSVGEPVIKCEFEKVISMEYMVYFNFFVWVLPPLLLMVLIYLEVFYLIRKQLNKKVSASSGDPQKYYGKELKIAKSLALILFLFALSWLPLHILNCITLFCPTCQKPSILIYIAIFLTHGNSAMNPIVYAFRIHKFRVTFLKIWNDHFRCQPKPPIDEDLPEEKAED

[10] = target: T7, Adenosine receptor A1 (Rattus norvegicus) (UniProt P25099); assay: Displacement of [3H]CCPA from rat brain cortex adenosine A1 receptor at 1 uM
T7 sequence (whole entry): T6 sequence (P25099 whole entry)

[11] = target: Adenosine receptor A2a (Rattus norvegicus, UniProt P30543); assay: Displacement of [3H]MSX-2 from rat brain striatum adenosine A2A receptor
[12] = species: Homo sapiens; assay: Selectivity ratio of Ki for human adenosine A1 receptor to Ki for human adenosine A2B receptor

Sequence of Adenosine receptor A2a (Homo sapiens, UniProt P29274) (P29274 whole entry): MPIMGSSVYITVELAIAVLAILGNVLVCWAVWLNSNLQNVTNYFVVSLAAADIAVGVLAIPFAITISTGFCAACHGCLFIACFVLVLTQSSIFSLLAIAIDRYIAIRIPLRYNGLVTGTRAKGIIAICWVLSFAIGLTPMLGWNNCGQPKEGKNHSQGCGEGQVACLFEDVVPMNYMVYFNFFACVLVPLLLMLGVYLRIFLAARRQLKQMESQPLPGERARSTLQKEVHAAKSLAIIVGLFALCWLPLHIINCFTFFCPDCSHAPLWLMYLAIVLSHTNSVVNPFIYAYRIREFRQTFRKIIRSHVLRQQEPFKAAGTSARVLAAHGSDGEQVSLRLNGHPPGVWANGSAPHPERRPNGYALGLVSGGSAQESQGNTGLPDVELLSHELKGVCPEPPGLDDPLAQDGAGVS
Sequence of Adenosine receptor A2a (Rattus norvegicus, UniProt P30543) (P30543 whole entry): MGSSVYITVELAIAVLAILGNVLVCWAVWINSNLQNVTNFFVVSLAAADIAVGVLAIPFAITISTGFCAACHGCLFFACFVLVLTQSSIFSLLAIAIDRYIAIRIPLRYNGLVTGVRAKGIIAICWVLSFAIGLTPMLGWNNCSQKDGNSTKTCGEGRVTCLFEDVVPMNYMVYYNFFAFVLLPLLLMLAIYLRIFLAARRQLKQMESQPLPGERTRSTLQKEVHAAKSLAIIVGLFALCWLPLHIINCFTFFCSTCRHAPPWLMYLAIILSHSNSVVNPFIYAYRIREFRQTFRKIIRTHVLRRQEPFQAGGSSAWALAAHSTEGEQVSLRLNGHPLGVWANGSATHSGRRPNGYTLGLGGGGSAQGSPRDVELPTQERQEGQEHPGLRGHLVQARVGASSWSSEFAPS

| Compound | IC50 [1] [nM] | inhibition [2] [%] | Ki [3] [nM] | Ki [4] [nM] | Ki [5] [nM] | Ki [6] [nM] | inhibition [7] [%] | inhibition [8] [%] | Ki [9] [nM] | inhibition [10] [%] | Ki [11] [nM] | Ratio Ki [12] |
| --- | --- | --- | --- | --- | --- | --- | --- | --- | --- | --- | --- | --- |
| CCCn1c(=O)[nH]c2nc(-c3ccc(S(=O)(=O)N4CCN(Cc5ccc(OC)cc5)CC4)cc3)[nH]c2c1=O | 16.2 | 32 | > 10000 | > 10000 | 0.944 | 328 | 38 | – | – | – | – | – |
| CCCn1c(=O)[nH]c2nc(-c3ccc(S(=O)(=O)N4CCN(c5ccc(OC)cc5)CC4)cc3)[nH]c2c1=O | – | – | > 1000 | > 10000 | 1.99 | 3720 | – | 1 | > 1000 | 27 | 41.5 | – |
| CCn1c(=O)[nH]c2nc(-c3ccc(S(=O)(=O)N4CCN(Cc5ccc6c(c5)OCO6)CC4)cc3)[nH]c2c1=O | 5.34 | 27 | > 10000 | > 10000 | 0.875 | 102 | 28 | – | 272 | – | 436 | – |
| C#CCn1c(=O)[nH]c2nc(-c3ccc(S(=O)(=O)N4CCN(c5ccc(Cl)cc5)CC4)cc3)[nH]c2c1=O | – | – | > 1000 | – | 0.473 | – | – | 35 | 1440 | – | 198 | – |
| CCCn1c(=O)[nH]c2nc(-c3ccc(S(=O)(=O)N4CCN(Cc5ccccc5)CC4)cc3)[nH]c2c1=O | – | – | – | – | 1.33 | – | – | – | – | – | – | – |
| CCCn1c(=O)[nH]c2nc(-c3ccc(S(=O)(=O)N4CCN(Cc5cccc(Cl)c5)CC4)cc3)[nH]c2c1=O | 1.91 | – | 24200 | 1090 | 0.782 | 161 | – | – | – | – | – | – |
| CCCn1c(=O)[nH]c2nc(-c3ccc(S(=O)(=O)N4CCN(Cc5ccc(F)cc5)CC4)cc3)[nH]c2c1=O | – | – | 758 | – | 0.595 | – | – | – | 33.8 | – | 194 | – |
| CCCn1c(=O)[nH]c2nc(-c3ccc(S(=O)(=O)N4CCN(Cc5ccc(C)cc5)CC4)cc3)[nH]c2c1=O | – | – | 156 | – | 0.858 | – | – | – | 46.7 | – | 1750 | – |
| CCn1c(=O)[nH]c2nc(-c3ccc(S(=O)(=O)N4CCN(Cc5cccc(Cl)c5)CC4)cc3)[nH]c2c1=O | – | – | 557 | – | 0.61 | – | – | – | 96.7 | – | 263 | – |
| CCn1c(=O)[nH]c2nc(-c3ccc(S(=O)(=O)N4CCN(Cc5cccc(F)c5)CC4)cc3)[nH]c2c1=O | – | – | 5780 | 2070 | 0.695 | 144 | – | – | 359 | – | 388 | – |
| CCCn1c(=O)[nH]c2nc(-c3ccc(S(=O)(=O)N4CCN(Cc5ccc(Cl)cc5)CC4)cc3)[nH]c2c1=O | 3.64 | – | > 1000 | 2240 | 0.393 | 333 | – | 18 | – | – | – | 5700 |
| CCn1c(=O)[nH]c2nc(-c3ccc(S(=O)(=O)N4CCN(Cc5ccc(C(F)(F)F)cc5)CC4)cc3)[nH]c2c1=O | – | 13 | > 10000 | > 10000 | 0.157 | 22.7 | 25 | – | > 1000 | 14 | 122 | > 60000 |
| CCn1c(=O)[nH]c2nc(-c3ccc(S(=O)(=O)N4CCCCC4)cc3)[nH]c2c1=O | – | – | 209 | – | 5.43 | – | – | – | 77.1 | – | 251 | – |
| CCCn1c(=O)[nH]c2nc(-c3ccc(S(=O)(=O)N4CCN(Cc5ccc6c(c5)OCO6)CC4)cc3)[nH]c2c1=O | 23.4 | – | 17600 | 443 | 1.06 | 112 | – | – | – | – | – | – |
